The values that follow come from patent publication US10150764B2, “Substituted benzene compounds” (Epizyme, Inc., priority 2013, dated 2018).

Structures can show the parent of a compound that is named as a salt.

In assay [1] the target is wild-type EZH2 (PRC2 enzyme) (Homo sapiens (Human), UniProt Q15910). The experiment in a line: PRC2 enzyme assay on peptide substrate, wild-type EZH2 (H3K27me0 peptide, 3H-SAM Flashplate). The assay is classed as biochemical. As to conditions: wild-type PRC2 4 nM, read-out: WT EZH2 IC50.
Protocol: (§1) Human PRC2 enzymes were purified as 4-component enzyme complexes co-expressed in Spodoptera frugiperda (sf9) cells using a baculovirus expression system. […] The EED subunit contained an N-terminal FLAG tag that was used to purify the entire 4-component complex from sf9 cell lysates.
(§2) The assays were all performed in a buffer consisting of 20 mM bicine (pH=7.6), 0.5 mM DTT, 0.005% BSG and 0.002% Tween20, prepared on the day of use. […] DMSO (1 μL) was added to columns 11, 12, 23, 24, rows A-H for the maximum signal control, and SAH, a known product and inhibitor of PRC2 (1 μL) was added to columns 11, 12, 23, 24, rows I-P for the minimum signal control. A cocktail (40 μL) containing the wild-type PRC2 enzyme and H3K27me0 peptide or any of the Y641 mutant enzymes and H3K27me2 peptide was added by Multidrop Combi (Thermo). The compounds were allowed to incubate with PRC2 for 30 min at 25° C., then a cocktail (10 μL) containing a mixture of non-radioactive and ^3H-SAM was added to initiate the reaction (final volume=51 μL). […] The assays were stopped by the addition of non-radioactive SAM (10 μL) to a final concentration of 600 μM, which dilutes the ^3H-SAM to a level where its incorporation into the peptide substrate is no longer detectable. 50 of the reaction in the 384-well polypropylene plate was then transferred to a 384-well Flashplate and the biotinylated peptides were allowed to bind to the streptavidin surface for at least 1 h before being washed three times with 0.1% Tween20 in a Biotek ELx405 plate washer. The plates were then read in a PerkinElmer TopCount platereader to measure the quantity of ^3H-labeled peptide bound to the Flashplate surface, measured as disintegrations per minute (dpm) or alternatively, referred to as counts per minute (cpm).
Assay [2] concerns the target EZH2 Y641F mutant (PRC2 enzyme) (Homo sapiens (Human), UniProt Q15910, Y641F). The experiment in a line: PRC2 enzyme assay on peptide substrate, EZH2 Y641F mutant (H3K27me2 peptide, 3H-SAM Flashplate). The format is biochemical. As to conditions: Y641F mutant PRC2 4 nM.
Protocol: as §1, §2
Assay [3] deals with H3K27me3 in WSU-DLCL2 cells. The assay is described as follows: WSU-DLCL2 methylation assay (H3K27me3 ELISA). The assay is classed as cell-based, human. As to conditions: H3K27me3 normalised to total H3.
Description: WSU-DLCL2 Methylation Assay
WSU-DLCL2 suspension cells were purchased from DSMZ (German Collection of Microorganisms and Cell Cultures, Braunschweig, Germany). RPMI/Glutamax Medium, Penicillin-Streptomycin, Heat Inactivated Fetal Bovine Serum, and D-PBS were purchased from Life Technologies, Grand Island, N.Y., USA. Extraction Buffer and Neutralization Buffer (5×) were purchased from Active Motif, Carlsbad, Calif., USA. Rabbit anti-Histone H3 antibody was purchased from Abcam, Cambridge, Mass., USA. Rabbit anti-H3K27me3 and HRP-conjugated anti-rabbit-IgG were purchased from Cell Signaling Technology, Danvers, Mass., USA. TMB “Super Sensitive” substrate was sourced from BioFX Laboratories, Owings Mills, Md., USA. IgG-free Bovine Serum Albumin was purchased from Jackson ImmunoResearch, West Grove, Pa., USA. PBS with Tween (10×PBST) was purchased from KPL, Gaithersburg, Md., USA. Sulfuric Acid was purchased from Ricca Chemical, Arlington, Tex., USA. Immulon ELISA plates were purchased from Thermo, Rochester, N.Y., USA. V-bottom cell culture plates were purchased from Corning Inc., Corning, N.Y., USA. V-bottom polypropylene plates were purchased from Greiner Bio-One, Monroe, N.C., USA.
WSU-DLCL2 suspension cells were maintained in growth medium (RPMI 1640 supplemented with 10% v/v heat inactivated fetal bovine serum and 100 units/mL penicillin-streptomycin) and cultured at 37° C. under 5% CO2. Under assay conditions, cells were incubated in Assay Medium (RPMI 1640 supplemented with 20% v/v heat inactivated fetal bovine serum and 100 units/mL penicillin-streptomycin) at 37° C. under 5% CO2 on a plate shaker.
WSU-DLCL2 cells were seeded in assay medium at a concentration of 50,000 cells per mL to a 96-well V-bottom cell culture plate with 200 μL per well. […] Plates were incubated on a titer-plate shaker at 37° C., 5% CO2 for 96 hours. After four days of incubation, plates were spun at 241×g for five minutes and medium was aspirated gently from each well of cell plate without disturbing cell pellet. Pellet was resuspended in: 200 μL DPBS and plates were spun again at 241×g for five minutes. The supernatant was aspirated and cold (4° C.) Extraction buffer (100 μL) was added per well. Plates were incubated at 4° C. on orbital shaker for two hours. Plates were spun at 3427×g×10 minutes. Supernatant (80 μL per well) was transferred to its respective well in 96 well V-bottom polypropylene plate. Neutralization Buffer 5× (20 μL per well) was added to V-bottom polypropylene plate containing supernatant. V-bottom polypropylene plates containing crude histone preparation (CHP) were incubated on orbital shaker×five minutes. Crude Histone Preparations were added (2 μL per well) to each respective well into duplicate 96 well ELISA plates containing 100 μL Coating Buffer (1×PBS+BSA 0.05% w/v). Plates were sealed and incubated overnight at 4° C. The following day, plates were washed three times with 300 μL per well 1×PBST. […] For H3K27me3 detection, 100 μL of HRP conjugated anti-rabbit IgG antibody diluted to 1:4000 in ELISA diluent was added per well. Plates were incubated at room temperature for 90 minutes. […] TMB substrate 100 μL was added per well. Histone H3 plates were incubated for five minutes at room temperature. H3K27me3 plates were incubated for 10 minutes at room temperature. The reaction was stopped with sulfuric acid 1N (100 μL per well). Absorbance for each plate was read at 450 nm.
Each plate included eight control wells DMSO only treatment (Minimum Inhibition) as well as eight control wells for maximum inhibition (Background wells).
The average of the ratio values for each control type was calculated and used to determine the percent inhibition for each test well in the plate. Test compound was serially diluted three-fold in DMSO for a total of ten test concentrations, beginning at 25 μM.
Setting [4] is: Homo sapiens, WSUDLCL2, 96 hours incubation.

Chain of EZH2 Y641F mutant (PRC2 enzyme) (Q15910 whole entry Y641F): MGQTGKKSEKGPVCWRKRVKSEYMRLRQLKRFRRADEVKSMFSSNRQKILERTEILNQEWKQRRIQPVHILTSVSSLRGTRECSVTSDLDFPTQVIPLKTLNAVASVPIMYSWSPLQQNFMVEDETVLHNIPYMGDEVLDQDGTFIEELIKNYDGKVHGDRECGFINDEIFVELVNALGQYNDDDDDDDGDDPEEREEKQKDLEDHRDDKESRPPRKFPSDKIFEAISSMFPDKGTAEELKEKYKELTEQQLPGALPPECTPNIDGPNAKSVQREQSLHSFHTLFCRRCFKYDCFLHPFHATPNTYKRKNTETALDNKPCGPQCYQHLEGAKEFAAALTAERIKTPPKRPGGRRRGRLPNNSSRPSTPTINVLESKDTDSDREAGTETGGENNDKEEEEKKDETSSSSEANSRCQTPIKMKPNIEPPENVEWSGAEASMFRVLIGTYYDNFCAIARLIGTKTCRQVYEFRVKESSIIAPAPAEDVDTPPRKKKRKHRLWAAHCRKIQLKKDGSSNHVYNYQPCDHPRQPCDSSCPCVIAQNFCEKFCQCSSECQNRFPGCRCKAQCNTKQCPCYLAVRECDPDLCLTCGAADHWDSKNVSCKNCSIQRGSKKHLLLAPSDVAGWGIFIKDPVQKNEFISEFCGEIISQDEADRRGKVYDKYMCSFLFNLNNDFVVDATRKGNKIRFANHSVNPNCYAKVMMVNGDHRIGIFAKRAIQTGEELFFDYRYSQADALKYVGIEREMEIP
Chain of EZH2 Y641F mutant (PRC2 enzyme) (O75530 whole entry partner): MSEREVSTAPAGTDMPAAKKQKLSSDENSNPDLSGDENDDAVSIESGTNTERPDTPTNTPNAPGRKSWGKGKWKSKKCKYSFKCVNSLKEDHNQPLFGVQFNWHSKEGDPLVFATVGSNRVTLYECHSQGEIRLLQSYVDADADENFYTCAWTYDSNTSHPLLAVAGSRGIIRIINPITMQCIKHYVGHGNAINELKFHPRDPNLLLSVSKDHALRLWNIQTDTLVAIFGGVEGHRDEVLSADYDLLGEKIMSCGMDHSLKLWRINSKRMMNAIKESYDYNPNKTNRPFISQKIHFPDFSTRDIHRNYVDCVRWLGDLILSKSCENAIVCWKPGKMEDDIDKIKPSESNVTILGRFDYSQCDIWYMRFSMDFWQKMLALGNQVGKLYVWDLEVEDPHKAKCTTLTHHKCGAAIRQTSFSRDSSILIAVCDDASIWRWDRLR
Chain of EZH2 Y641F mutant (PRC2 enzyme) (Q15022 whole entry partner): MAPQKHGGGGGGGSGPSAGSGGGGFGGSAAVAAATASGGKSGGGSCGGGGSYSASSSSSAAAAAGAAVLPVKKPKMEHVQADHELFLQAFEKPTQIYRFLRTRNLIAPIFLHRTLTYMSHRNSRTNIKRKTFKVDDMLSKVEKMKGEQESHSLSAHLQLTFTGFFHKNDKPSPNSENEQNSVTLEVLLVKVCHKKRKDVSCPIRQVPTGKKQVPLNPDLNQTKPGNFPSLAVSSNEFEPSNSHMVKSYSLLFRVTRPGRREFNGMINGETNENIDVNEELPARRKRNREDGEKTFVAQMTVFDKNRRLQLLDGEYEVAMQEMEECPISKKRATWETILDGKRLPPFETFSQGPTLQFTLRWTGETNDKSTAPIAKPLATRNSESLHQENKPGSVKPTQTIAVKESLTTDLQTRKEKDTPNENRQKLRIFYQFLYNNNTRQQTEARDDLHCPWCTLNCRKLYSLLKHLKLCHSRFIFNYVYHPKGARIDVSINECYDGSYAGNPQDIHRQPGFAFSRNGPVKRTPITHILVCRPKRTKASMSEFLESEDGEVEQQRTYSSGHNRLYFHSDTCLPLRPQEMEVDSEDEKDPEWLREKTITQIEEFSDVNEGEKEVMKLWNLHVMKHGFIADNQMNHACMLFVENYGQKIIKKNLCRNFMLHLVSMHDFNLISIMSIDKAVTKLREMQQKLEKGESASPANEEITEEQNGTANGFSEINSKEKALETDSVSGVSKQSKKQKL
Chain of EZH2 Y641F mutant (PRC2 enzyme) (Q09028 whole entry partner): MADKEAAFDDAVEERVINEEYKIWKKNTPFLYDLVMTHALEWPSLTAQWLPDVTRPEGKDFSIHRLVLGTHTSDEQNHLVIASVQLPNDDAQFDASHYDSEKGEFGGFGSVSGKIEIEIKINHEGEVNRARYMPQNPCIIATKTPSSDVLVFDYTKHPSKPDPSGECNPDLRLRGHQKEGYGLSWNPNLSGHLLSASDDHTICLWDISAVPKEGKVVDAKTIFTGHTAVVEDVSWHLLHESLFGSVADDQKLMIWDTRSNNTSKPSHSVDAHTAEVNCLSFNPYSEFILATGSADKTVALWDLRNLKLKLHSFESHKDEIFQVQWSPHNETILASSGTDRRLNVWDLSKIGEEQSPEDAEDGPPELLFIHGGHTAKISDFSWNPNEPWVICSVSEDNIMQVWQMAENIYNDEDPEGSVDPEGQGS
Chain of wild-type EZH2 (PRC2 enzyme) (Q15910 whole entry): as the sequence (Q15910 whole entry Y641F) above, with F641Y counted along it
Chain of wild-type EZH2 (PRC2 enzyme) (O75530 whole entry partner): as the sequence (O75530 whole entry partner) above
Chain of wild-type EZH2 (PRC2 enzyme) (Q15022 whole entry partner): as the sequence (Q15022 whole entry partner) above
Chain of wild-type EZH2 (PRC2 enzyme) (Q09028 whole entry partner): as the sequence (Q09028 whole entry partner) above

What is called IC50 is the concentration needed to halve the response being measured. As to `CCN(c1cc(Cl)cc(C(=O)NCc2c(C)[nH]n(C)c2=O)c1C)[C@@H]1COC[C@H]1O` (relative stereo) [Compound 41, 5-chloro-N-((2,5-dimethyl-3-oxo-2,3-dihydro-1H-pyrazol-4-yl)methyl)-3-(ethyl((trans)-4-hydroxytetrahydrofuran-3-yl)amino)-2-methylbenzamide], the IC50 is 37.2 µM in assay [1], 26.2 µM in assay [2] and greater than 50 µM in assay [3] (setting [4]).
Turning to `CCN(c1cc(-c2ccc(N3CCNCC3)nc2)cc(C(=O)NCc2c(C)[nH]n(C)c2=O)c1C)C1CCOCC1` [Compound 47, N-((2,5-dimethyl-3-oxo-2,3-dihydro-1H-pyrazol-4-yl)methyl)-3-(ethyl(tetrahydro-2H-pyran-4-yl)amino)-2-methyl-5-(6-(piperazin-1-yl)pyridin-3-yl)benzamide], the IC50 in assay [3] (setting [4]) is greater than 50 µM.
Consider “5-chloro-3-(ethyl((trans)-4-((4-methoxybenzyl)(methyl)amino) cyclohexyl)amino)-2-methyl-N-((1-methyl-3-oxo-5-(piperidin-1-yl)-2,3-dihydro-1H-pyrazol-4-yl)methyl)benzamide [Compound 84]”, for which the IC50 in assay [1] was 1.44 µM; in assay [2] it was 1.22 µM; in assay [3] (96 hours incubation), 16.7 µM.
Compound `CCN(c1cc(-c2ccc(CN3CCOCC3)cc2)cc(C(=O)NCc2c(C)[nH]n(C)c2=O)c1C)C1CCOCC1` [Compound 46, N-((2,5-dimethyl-3-oxo-2,3-dihydro-1H-pyrazol-4-yl)methyl)-5-(ethyl(tetrahydro-2H-pyran-4-yl)amino)-4-methyl-4′-(morpholinomethyl)-[1,1′-biphenyl]-3-carboxamide] returned an IC50 in assay [3] (setting [4]) greater than 50 µM.
In the case of `CCN(c1cc(Cl)cc(C(=O)NCc2c(C)nn(C)c2OC)c1C)[C@H]1CC[C@H](N(C)C)CC1` [Compound 91, 5-chloro-N-((5-methoxy-1,3-dimethyl-1H-pyrazol-4-yl)methyl)-3-(((trans)-4-(dimethylamino)cyclohexyl)(ethyl)amino)-2-methylbenzamide], the IC50 in assay [1] is 7.45 µM; in assay [2], 1.17 µM; in assay [3] (setting [4]), greater than 50 µM.
As for `CCN(c1cc(Cl)cc(C(=O)NCc2c(C)n(C)[nH]c2=O)c1C)[C@H]1CC[C@H](N(C)CCOC)CC1` [Compound 55, 5-chloro-N-((1,5-dimethyl-3-oxo-2,3-dihydro-1H-pyrazol-4-yl)methyl)-3-(ethyl((trans)-4-((2-methoxyethyl)(methyl)amino)cyclohexyl)amino)-2-methylbenzamide], the IC50 was 0.695 µM in assay [1], 0.418 µM in assay [2] and 30.6 µM in assay [3] (setting [4]).
Turning to `CCN(c1cc(Cl)cc(C(=O)NCc2c(C(C)C)[nH]n(C)c2=O)c1C)[C@H]1CC[C@H](N(C)C)CC1` [Compound 39, 5-chloro-3-(((trans)-4-(dimethylamino)cyclohexyl)(ethyl)amino)-N-((5-isopropyl-2-methyl-3-oxo-2,3-dihydro-1H-pyrazol-4-yl)methyl)-2-methylbenzamide], the IC50 was found to be 6.58 µM in assay [1] and 2.23 µM in assay [2].
The corresponding values for `CCN(c1cc(Cl)cc(C(=O)NCc2c(OC)nn(C)c2C)c1C)C1CCN(CCOC)CC1` [Compound 76, 5-chloro-3-(ethyl(1-(2-methoxyethyl)piperidin-4-yl)amino)-N-((3-methoxy-1,5-dimethyl-1H-pyrazol-4-yl)methyl)-2-methylbenzamide] are greater than 50 µM and greater than 50 µM.
The corresponding values for `CCN(c1cc(Cl)cc(C(=O)NCc2c(N3CCCCC3)nn(C)c2OC)c1C)[C@H]1CC[C@H](N(C)C)CC1` [Compound 94, 5-chloro-3-(((trans)-4-(dimethylamino)cyclohexyl)(ethyl)amino)-N-((5-methoxy-1-methyl-3-(piperidin-1-yl)-1H-pyrazol-4-yl)methyl)-2-methylbenzamide] are greater than 50 µM and greater than 50 µM.
On to `CCn1nc(OC)c(CNC(=O)c2cc(Cl)cc(N(CC)[C@H]3CC[C@H](N(C)Cc4cccc(OC)c4)CC3)c2C)c1C` [Compound 62, 5-chloro-3-(ethyl((trans)-4-((3-methoxybenzyl)-(methyl)-amino)-cyclohexyl)-amino)-N-((1-ethyl-3-methoxy-5-methyl-1H-pyrazol-4-yl)methyl)-2-methylbenzamide], for which the IC50 in assay [1] was 0.745 µM; in assay [2], 0.193 µM; in assay [3] (setting [4]), greater than 50 µM.
With `CCN(c1cc(Cl)cc(C(=O)NCc2c(OC)nn(C)c2N2CCCCC2)c1C)[C@H]1CC[C@H](N(C)C)CC1` [Compound 92, 5-chloro-3-(ethyl[(trans)-4-(dimethylamino)cyclohexyl]amino)-N-([3-methoxy-1-methyl-5-(piperidin-1-yl)-1H-pyrazol-4-yl]methyl)-2-methylbenzamide], the half-maximal inhibitory concentration (IC50) in assay [1] and in assay [2] was greater than 50 µM each time.
Regarding `CCN(c1cc(-c2ccc(OCCOC)cc2)cc(C(=O)NCc2c(C)[nH][nH]c2=O)c1C)[C@H]1CC[C@H](N(C)C)CC1` [Compound 30, 5-(((trans)-4-(dimethylamino)cyclohexyl)(ethyl)amino)-4′-(2-methoxyethoxy)-4-methyl-N-((5-methyl-3-oxo-2,3-dihydro-1H-pyrazol-4-yl)methyl)-[1,1′-biphenyl]-3-carboxamide], the values for the IC50 in assay [1], in assay [2] and in assay [3] (setting [4]) were 0.024 µM, 0.007 µM and 29 µM, respectively.
`CCN(c1cc(Cl)cc(C(=O)NCc2c(OC)nn(CC)c2C)c1C)C1CCN(CCOC)CC1` [Compound 74]: the IC50 came to 12.6 µM in assay [1] and 7.25 µM in assay [2].
The corresponding values for `CCN(c1cc(Cl)cc(C(=O)NCc2c(OC)nn(C)c2C)c1C)[C@H]1CC[C@H](N(C)C(C)c2cccnc2)CC1` (stereo partly drawn) [Compound 72, 5-chloro-3-(ethyl((trans)-4-(methyl(1-(pyridin-3-yl)ethyl)amino)cyclohexyl)amino)-N-((3-methoxy-1,5-dimethyl-1H-pyrazol-4-yl)methyl)-2-methylbenzamide] are greater than 50 µM and 5.67 µM.
The corresponding values for `CCn1nc(OC)c(CNC(=O)c2cc(Cl)cc(N(CC)[C@H]3CC[C@H](N(C)CCOC)CC3)c2C)c1C` [Compound 64, 5-chloro-3-(ethyl ((trans)-4-((2-methoxyethyl)-(methyl)-amino)-cyclohexyl)amino)-N-((1-ethyl-3-methoxy-5-methyl-1H-pyrazol-4-yl)methyl)-2-methylbenzamide] are 17.5 µM and 4.48 µM.
The corresponding values for `CCN(c1cc(Cl)cc(C(=O)NCc2c(OC)nn3c(C)cc(C)nc23)c1C)[C@H]1CC[C@H](N(C)C)CC1` [Compound 48, 5-chloro-3-(((trans)-4-(dimethylamino)cyclohexyl)(ethyl)amino)-N-((2-methoxy-5,7-dimethylpyrazolo[1,5-a]pyrimidin-3-yl)methyl)-2-methylbenzamide] are greater than 50 µM and greater than 50 µM.
Regarding `CCCCc1[nH]n(C)c(=O)c1CNC(=O)c1cc(Cl)cc(N(CC)[C@H]2CC[C@H](N(C)C)CC2)c1C` [Compound 40, N-((5-butyl-2-methyl-3-oxo-2,3-dihydro-1H-pyrazol-4-yl)methyl)-5-chloro-3-(((trans)-4-(dimethylamino)cyclohexyl)(ethyl)amino)-2-methylbenzamide], the 50% inhibitory concentration (IC50) in assay [1] was 0.689 µM; in assay [2], 0.166 µM.
For `CCN(c1cc(Cl)cc(C(=O)NCc2c(C)n(C)n(C)c2=O)c1C)[C@H]1CC[C@H](N(C)C)CC1` [Compound 87, 5-chloro-3-(ethyl((trans)-4-(dimethylamino)cyclohexyl)amino)-2-methyl-N-((1,2,5-trimethyl-3-oxo-2,3-dihydro-1H-pyrazol-4-yl)methyl)benzamide], the half-inhibitory concentration (IC50) in assay [1] stood at 0.335 µM; in assay [2] it was 0.253 µM.
For `CCN(c1cc(Cl)cc(C(=O)NCc2c(=O)[nH]n3c(C)cc(C)nc23)c1C)[C@H]1CC[C@H](N(C)C)CC1` [Compound 49, 5-chloro-N-((5,7-dimethyl-2-oxo-1,2-dihydropyrazolo[1,5-a]pyrimidin-3-yl)methyl)-3-(((trans)-4-(dimethylamino)cyclohexyl)(ethyl)amino)-2-methylbenzamide], the IC50 in assay [1] was 10.4 µM; in assay [2], 5.17 µM.
Consider `CCN(c1cc(Cl)cc(C(=O)NCc2cn(C)[nH]c2=O)c1C)[C@H]1CC[C@H](N(C)C)CC1` [Compound 31a, 5-chloro-3-(ethyl((trans)-4-(dimethylamino)cyclohexyl]amino)-2-methyl-N-((1-methyl-3-oxo-2,3-dihydro-1H-pyrazol-4-yl)methyl]benzamide formate], for which the figures for the IC50 in assay [1] and in assay [2] were 0.505 µM and 0.23 µM, respectively.
The corresponding values for `CCN(c1cc(Cl)cc(C(=O)NCc2c(C)n(C)[nH]c2=O)c1C)C1CCN(CCc2cccc(OC)c2)CC1` [Compound 79, 5-chloro-N-((1,5-dimethyl-3-oxo-2,3-dihydro-1H-pyrazol-4-yl)methyl)-3-(ethyl(1-(3-methoxyphenethyl)piperidin-4-yl)amino)-2-methylbenzamide] are 0.485 µM and 0.1 µM.
The corresponding values for `CCN(c1cc(Cl)cc(C(=O)NCc2c(C(F)(F)F)nn(C)c2OC)c1C)[C@H]1CC[C@H](N(C)C)CC1` [Compound 88, 5-chloro-3-(ethyl((trans)-4-(dimethylamino)cyclohexyl)amino)-N-((5-methoxy-1-methyl-3-(trifluoromethyl)-1H-pyrazol-4-yl)methyl)-2-methylbenzamide] are greater than 50 µM and 46.4 µM.
Consider `CCN(c1cc(Cl)cc(C(=O)NCc2c(C(F)(F)F)n(C)n(C)c2=O)c1C)[C@H]1CC[C@H](N(C)C)CC1` [Compound 90, 5-chloro-N-((1,2-dimethyl-3-oxo-5-(trifluoromethyl)-2,3-dihydro-1H-pyrazol-4-yl)methyl)-3-(ethyl((trans)-4-(dimethylamino)cyclohexyl)amino)-2-methylbenzamide], for which the results for the IC50 in assay [1] and in assay [2] were 1.91 µM and 0.502 µM, respectively.
